# Experimental data reported in article PMC6657668, “Porcine Beta-Defensin 2 Provides Protection Against Bacterial Infection by a Direct Bactericidal Activity and Alleviates Inflammation via Interference With the TLR4/NF-κB Pathway” (Frontiers in Immunology, 2019).
# Where a SMILES comes first, the peptide text is derived from it.
# Tests used:
# [1] = tested on: LPS-induced production of cytokines; assay: Serum cytokine levels of mice injected with LPS (ELISA); assay type: in vivo, mouse; conditions: 1 h, n = 6
# Experimental: Six TG mice and six WT mice were separately injected with LPS (16 mg/kg body weight) intraperitoneally. The same number of TG mice and WT mice was injected with 100 μl of sterile PBS as a negative control. The sera from the mice in each group were collected 1 h after the injection to detect cytokines by ELISA.
# The WT mice were injected with LPS alone or LPS with PBD-2 (0.5 mg/kg body weight) intraperitoneally (n = 6 each group) to detect the effect of synthetic PBD-2 on inflammation induced by LPS. The sera from the mice in each group were collected 1 h after the injection to detect the cytokines by ELISA.
# [2] = ref [11]; cited from earlier work
# S. Typhimurium = assay: Body weight loss of mice infected with S. Typhimurium; conditions: PBD-2 expressed in TG mice; oral 2.5 × 10^8 CFU; days 1-5; n = 7; vs WT
# Experimental: Four infection experiments were conducted to determine the resistance to S. Typhimurium of the TG mice. For body weight measurements, 7 WT and 7 TG mice were orally administered with 2.5 × 10^8 CFU of S. Typhimurium, and the body weight of each mouse was measured on days 1, 2, 3, 4, and 5 after infection. For the detection of the tissue weight ratios, bacterial loads in tissues and tissue lesions after S. Typhimurium infection, 9 WT and 8 TG mice were orally administered with 2.5 × 10^8 CFU of S. Typhimurium. The spleen, caecum and body weights of the mice were weighed at 24 h post-infection. The bacterial loads in the tissues were also measured ([26]). The spleen and caecum were weighed and homogenized in cold PBS at a ratio of 4 ml per gram of tissue and coated plates. The bacterial numbers in the homogenates were counted by serially diluting the homogenates and spreading on plates. Caeca were harvested for histopathological analysis by using the methods described above. The intestinal damage, including epithelial damage, submucosal oedema, and neutrophil aggregation, was observed.
# [3] = PBD-2 expressed in TG mice, LPS 16 mg/kg i.p., vs WT
# [4] = synthetic PBD-2 0.5 mg/kg i.p. with LPS 16 mg/kg, WT mice, vs LPS alone
smiles,measurement,setting,value
"CC[C@H](C)[C@H](NC(=O)[C@@H]1CSSC[C@@H]2NC(=O)[C@@H]3CCCN3C(=O)[C@H](CO)NC(=O)[C@H](Cc3ccccc3)NC(=O)[C@H](CC(N)=O)NC(=O)[C@@H]3CSSC[C@H](NC(=O)[C@H]([C@@H](C)O)NC(=O)CNC(=O)[C@H](CCC(=O)O)NC(=O)[C@H]([C@@H](C)CC)NC(=O)[C@H](CCCNC(=N)N)NC(=O)[C@H](CC(N)=O)NC(=O)[C@H](Cc4ccccc4)NC(=O)[C@H](CC(C)C)NC(=O)[C@@H]4CCCN4C2=O)C(=O)N[C@@H](Cc2ccc(O)cc2)C(=O)N[C@@H](CO)C(=O)NCC(=O)N[C@@H](CCCCN)C(=O)N[C@@H](C)C(=O)N[C@@H](CCCCN)C(=O)N[C@@H](CSSC[C@H](NC(=O)[C@@H](NC(=O)[C@H](Cc2ccc(O)cc2)NC(=O)[C@H](Cc2c[nH]cn2)NC(=O)[C@@H](N)CC(=O)O)[C@@H](C)CC)C(=O)N[C@@H](C)C(=O)N[C@@H](CCCCN)C(=O)N[C@@H](CCCCN)C(=O)NCC(=O)NCC(=O)N[C@@H]([C@@H](C)O)C(=O)N3)C(=O)N1)C(=O)N[C@@H](CCCNC(=N)N)C(=O)O [PBD-2, Porcine beta-defensin 2] (HELM PEPTIDE1{D.H.Y.I.C.A.K.K.G.G.T.C.N.F.S.P.C.P.L.F.N.R.I.E.G.T.C.Y.S.G.K.A.K.C.C.I.R}$PEPTIDE1,PEPTIDE1,5:R3-34:R3|PEPTIDE1,PEPTIDE1,12:R3-27:R3|PEPTIDE1,PEPTIDE1,17:R3-35:R3$$$V2.0; N-terminus and C-terminus assumed)",LPS-induced IL-1β in serum,[1]; [3],significantly lower in the TG mice than in the WT mice (p < 0.05)
same,LPS-induced IL-6 in serum,[1]; [3],significantly lower in the TG mice than in the WT mice (p < 0.05)
same,LPS-induced IL-12 in serum,[1]; [3],significantly lower in the TG mice than in the WT mice (p < 0.05)
same,LPS-induced TNF-α in serum,[1]; [3],significantly lower in the TG mice than in the WT mice (p < 0.05)
same,LPS-induced IL-1β in serum,[1]; [4],"significantly lower levels of secreted TNF-α, IL-6, IL-1β, and IL-12 than those injected with LPS alone (p < 0.05)"
same,LPS-induced IL-6 in serum,[1]; [4],"significantly lower levels of secreted TNF-α, IL-6, IL-1β, and IL-12 than those injected with LPS alone (p < 0.05)"
same,LPS-induced IL-12 in serum,[1]; [4],"significantly lower levels of secreted TNF-α, IL-6, IL-1β, and IL-12 than those injected with LPS alone (p < 0.05)"
same,LPS-induced TNF-α in serum,[1]; [4],"significantly lower levels of secreted TNF-α, IL-6, IL-1β, and IL-12 than those injected with LPS alone (p < 0.05)"
same,hemolytic activity,[2],limited hemolytic activity
same,body weight loss,S. Typhimurium,less degree of body weight loss from day 2 onwards (p < 0.05)
